In patent US11802111B2, “Cyclobutyl amide monoacylglycerol lipase modulators” (Janssen Pharmaceutica NV, priority 2020, dated 2023):

These molecules were tested against human MGL from HeLa cells (Homo sapiens (Human), UniProt Q99685) (assay: MGL in vitro activity assay ([glycerol-1,3-3H]-oleoyl glycerol hydrolysis, activated carbon filtration)). Conditions: 300 nM [Glycerol-1,3-3H]-oleoyl glycerol, one hour.
Type: biochemical
Outline: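 Activity measured as tritium in the flow-through after activated carbon filtration of a 1 h reaction containing 300 nM 3H-oleoyl glycerol, compound and HeLa-derived human MGL. Compounds screened at 10 μM; IC50 series start at an empirically chosen highest concentration.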

human MGL from HeLa cells, sequence (Q99685 whole entry): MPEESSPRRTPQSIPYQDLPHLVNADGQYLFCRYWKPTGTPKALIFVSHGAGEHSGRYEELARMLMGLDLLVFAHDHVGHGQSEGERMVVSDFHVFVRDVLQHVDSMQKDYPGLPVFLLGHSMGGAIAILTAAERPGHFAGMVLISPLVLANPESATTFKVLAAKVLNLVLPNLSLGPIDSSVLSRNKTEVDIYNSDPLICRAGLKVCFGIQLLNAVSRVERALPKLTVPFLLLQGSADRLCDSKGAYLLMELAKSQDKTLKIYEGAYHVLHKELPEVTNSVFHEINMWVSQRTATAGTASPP

| Compound | IC50 [nM] |
| --- | --- |
| Cc1nc(OC2CCC3(CC2)CN(C(=O)[C@H]2C[C@@](C)(O)C2)C3)ccc1C(F)F [Example 438, (7-((5-(Difluoromethyl)-6-methylpyridin-2-yl)oxy)-2-azaspiro[3.5]nonan-2-yl)((1s,3s)-3-hydroxy-3-methylcyclobutyl)methanone] | 32 |
| CCc1nc(OC2CCC3(CC2)CN(C(=O)[C@H]2C[C@@](C)(O)C2)C3)ccc1C(F)F [Example 440, (7-((5-(Difluoromethyl)-6-ethylpyridin-2-yl)oxy)-2-azaspiro[3.5]nonan-2-yl)((1s,3s)-3-hydroxy-3-methylcyclobutyl)methanone] | 15 |
| CCc1ccc(C(F)F)c(OC2CCC3(CC2)CN(C(=O)[C@H]2C[C@@](C)(O)C2)C3)n1 [Example 441, (7-((3-(Difluoromethyl)-6-ethylpyridin-2-yl)oxy)-2-azaspiro[3.5]nonan-2-yl)((1s,3s)-3-hydroxy-3-methylcyclobutyl)methanone] | 14 |
| Cc1ccc(C(F)(F)F)c(OC2CCC3(CC2)CN(C(=O)[C@H]2C[C@@](C)(O)C2)C3)n1 [Example 443, ((1s,3s)-3-Hydroxy-3-methylcyclobutyl)(7-((6-methyl-3-(trifluoromethyl)pyridin-2-yl)oxy)-2-azaspiro[3.5]nonan-2-yl)methanone] | 17 |
| Cc1cc(C(F)(F)F)cc(OC2CCC3(CC2)CN(C(=O)[C@H]2C[C@@](C)(O)C2)C3)n1 [Example 447, ((1s,3s)-3-Hydroxy-3-methylcyclobutyl)(7-((6-methyl-4-(trifluoromethyl)pyridin-2-yl)oxy)-2-azaspiro[3.5]nonan-2-yl)methanone] | 110 |
| CC[C@]1(O)C[C@@H](C(=O)N2CC3(CCC(Oc4ccc(C)c(C(F)(F)F)n4)CC3)C2)C1 [Example 452, ((1r,3s)-3-Ethyl-3-hydroxycyclobutyl)(7-((5-methyl-6-(trifluoromethyl)pyridin-2-yl)oxy)-2-azaspiro[3.5]nonan-2-yl)methanone] | 20 |
| Cc1ccc(OC2CCC3(CC2)CN(C(=O)[C@H]2C[C@](O)(C(F)F)C2)C3)nc1C(F)(F)F [Example 453, ((1s,3s)-3-(Difluoromethyl)-3-hydroxycyclobutyl)(7-((5-methyl-6-(trifluoromethyl)pyridin-2-yl)oxy)-2-azaspiro[3.5]nonan-2-yl)methanone] | 19 |
| COc1nc(OC2CCC3(CC2)CN(C(=O)[C@H]2C[C@@](C)(O)C2)C3)ccc1C [Example 456, ((1s,3s)-3-Hydroxy-3-methylcyclobutyl)(7-((6-methoxy-5-methylpyridin-2-yl)oxy)-2-azaspiro[3.5]nonan-2-yl)methanone] | 19 |
| COc1cc(OC2CCC3(CC2)CN(C(=O)[C@H]2C[C@@](C)(O)C2)C3)ncc1Cl [Example 460, (7-((5-Chloro-4-methoxypyridin-2-yl)oxy)-2-azaspiro[3.5]nonan-2-yl)((1s,3s)-3-hydroxy-3-methylcyclobutyl)methanone] | 142 |
| COc1ccnc(OC2CCC3(CC2)CN(C(=O)[C@H]2C[C@@](C)(O)C2)C3)c1Cl [Example 464, (7-((3-Chloro-4-methoxypyridin-2-yl)oxy)-2-azaspiro[3.5]nonan-2-yl)((1s,3s)-3-hydroxy-3-methylcyclobutyl)methanone] | 81 |
| C[C@]1(O)C[C@@H](C(=O)N2CC3(CCC(Oc4ncc(C(F)(F)F)cn4)CC3)C2)C1 [Example 467, ((1s,3s)-3-Hydroxy-3-methylcyclobutyl)(7-((5-(trifluoromethyl)pyrimidin-2-yl)oxy)-2-azaspiro[3.5]nonan-2-yl)methanone] | 858 |
| C[C@]1(O)C[C@@H](C(=O)N2CC3(CCC(Oc4ccc5c(n4)CCC5)CC3)C2)C1 [Example 468, (7-((6,7-Dihydro-5H-cyclopenta[b]pyridin-2-yl)oxy)-2-azaspiro[3.5]nonan-2-yl)((1s,3s)-3-hydroxy-3-methylcyclobutyl)methanone] | 29 |
| Cn1ccc2ccc(OC3CCC4(CC3)CN(C(=O)[C@H]3C[C@@](C)(O)C3)C4)nc21 [Example 469, ((1s,3s)-3-Hydroxy-3-methylcyclobutyl)(7-((1-methyl-1H-pyrrolo[2,3-b]pyridin-6-yl)oxy)-2-azaspiro[3.5]nonan-2-yl)methanone] | 18 |

These reach a lower IC50. Values come first.

| IC50 [nM] | Compound |
| --- | --- |
| 1.8 | CCc1ccc(OC2CCC3(CC2)CN(C(=O)[C@H]2C[C@@](C)(O)C2)C3)nc1C(F)F [Example 439, (7-((6-(Difluoromethyl)-5-ethylpyridin-2-yl)oxy)-2-azaspiro[3.5]nonan-2-yl)((1s,3s)-3-hydroxy-3-methylcyclobutyl)methanone] |
| 9.6 | Cc1cc(OC2CCC3(CC2)CN(C(=O)[C@H]2C[C@@](C)(O)C2)C3)ncc1C(F)(F)F [Example 442, ((1s,3s)-3-Hydroxy-3-methylcyclobutyl)(7-((4-methyl-5-(trifluoromethyl)pyridin-2-yl)oxy)-2-azaspiro[3.5]nonan-2-yl)methanone] |
| 0.76 | Cc1cc(C(F)(F)F)cnc1OC1CCC2(CC1)CN(C(=O)[C@H]1C[C@@](C)(O)C1)C2 [Example 446, ((1s,3s)-3-Hydroxy-3-methylcyclobutyl)(7-((3-methyl-5-(trifluoromethyl)pyridin-2-yl)oxy)-2-azaspiro[3.5]nonan-2-yl)methanone] |
| 2.4 | Cc1nc(OC2CCC3(CC2)CN(C(=O)[C@H]2C[C@@](C)(O)C2)C3)ccc1C(F)(F)F [Example 448, ((1s,3s)-3-Hydroxy-3-methylcyclobutyl)(7-((6-methyl-5-(trifluoromethyl)pyridin-2-yl)oxy)-2-azaspiro[3.5]nonan-2-yl)methanone] |
| 8.5 | Cc1ccc(C(F)(F)F)nc1OC1CCC2(CC1)CN(C(=O)[C@H]1C[C@@](C)(O)C1)C2 [Example 449, ((1s,3s)-3-Hydroxy-3-methylcyclobutyl)(7-((3-methyl-6-(trifluoromethyl)pyridin-2-yl)oxy)-2-azaspiro[3.5]nonan-2-yl)methanone] |
| 2.9 | CCc1ccc(OC2CCC3(CC2)CN(C(=O)[C@H]2C[C@@](C)(O)C2)C3)nc1C(F)(F)F [Example 450, (7-((5-Ethyl-6-(trifluoromethyl)pyridin-2-yl)oxy)-2-azaspiro[3.5]nonan-2-yl)((1s,3s)-3-hydroxy-3-methylcyclobutyl)methanone] |
| 8.2 | Cc1ccc(OC2CCC3(CC2)CN(C(=O)[C@H]2C[C@@](C)(O)C2)C3)nc1C(F)(F)F [Example 451, ((1s,3s)-3-Hydroxy-3-methylcyclobutyl)(7-((5-methyl-6-(trifluoromethyl)pyridin-2-yl)oxy)-2-azaspiro[3.5]nonan-2-yl)methanone] |
| 2.2 | CCc1ccc(OC2CCC3(CC2)CN(C(=O)[C@H]2C[C@@](C)(O)C2)C3)nc1OC [Example 454, (7-((5-Ethyl-6-methoxypyridin-2-yl)oxy)-2-azaspiro[3.5]nonan-2-yl)((1s,3s)-3-hydroxy-3-methylcyclobutyl)methanone] |
| 1.3 | COc1nc(OC2CCC3(CC2)CN(C(=O)[C@H]2C[C@@](C)(O)C2)C3)ccc1C1CC1 [Example 455, (7-((5-Cyclopropyl-6-methoxypyridin-2-yl)oxy)-2-azaspiro[3.5]nonan-2-yl)((1s,3s)-3-hydroxy-3-methylcyclobutyl)methanone] |
| 13 | C[C@]1(O)C[C@@H](C(=O)N2CC3(CCC(Oc4ncc(C(F)(F)F)cc4F)CC3)C2)C1 [Example 457, (7-((3-Fluoro-5-(trifluoromethyl)pyridin-2-yl)oxy)-2-azaspiro[3.5]nonan-2-yl)((1s,3s)-3-hydroxy-3-methylcyclobutyl)methanone] |
| 0.55 | COc1nc(OC2CCC3(CC2)CN(C(=O)[C@H]2C[C@@](C)(O)C2)C3)ccc1C(F)(F)F [Example 458, ((1s,3s)-3-Hydroxy-3-methylcyclobutyl)(7-((6-methoxy-5-(trifluoromethyl)pyridin-2-yl)oxy)-2-azaspiro[3.5]nonan-2-yl)methanone] |
| 0.22 | CCOc1nc(OC2CCC3(CC2)CN(C(=O)[C@H]2C[C@@](C)(O)C2)C3)ccc1C(F)(F)F [Example 459, (7-((6-Ethoxy-5-(trifluoromethyl)pyridin-2-yl)oxy)-2-azaspiro[3.5]nonan-2-yl)((1s,3s)-3-hydroxy-3-methylcyclobutyl)methanone] |
| 6.1 | COc1nc(OC2CCC3(CC2)CN(C(=O)[C@H]2C[C@@](C)(O)C2)C3)ccc1Cl [Example 461, (7-((5-Chloro-6-methoxypyridin-2-yl)oxy)-2-azaspiro[3.5]nonan-2-yl)((1s,3s)-3-hydroxy-3-methylcyclobutyl)methanone] |
| 6.8 | COc1ccc(Cl)c(OC2CCC3(CC2)CN(C(=O)[C@H]2C[C@@](C)(O)C2)C3)n1 [Example 462, (7-((3-Chloro-6-methoxypyridin-2-yl)oxy)-2-azaspiro[3.5]nonan-2-yl)((1s,3s)-3-hydroxy-3-methylcyclobutyl)methanone] |
| 9.7 | COc1cc(Cl)cnc1OC1CCC2(CC1)CN(C(=O)[C@H]1C[C@@](C)(O)C1)C2 [Example 463, (7-((5-Chloro-3-methoxypyridin-2-yl)oxy)-2-azaspiro[3.5]nonan-2-yl)((1s,3s)-3-hydroxy-3-methylcyclobutyl)methanone] |
| 2.7 | Cc1cc(OC2CCC3(CC2)CN(C(=O)[C@H]2C[C@@](C)(O)C2)C3)nc(C)c1C(F)(F)F [Example 465, (7-((4,6-Dimethyl-5-(trifluoromethyl)pyridin-2-yl)oxy)-2-azaspiro[3.5]nonan-2-yl)((1s,3s)-3-hydroxy-3-methylcyclobutyl)methanone] |
| 0.1 | Cc1cc(C(F)(F)F)c(C)nc1OC1CCC2(CC1)CN(C(=O)[C@H]1C[C@@](C)(O)C1)C2 [Example 466, (7-((3,6-Dimethyl-5-(trifluoromethyl)pyridin-2-yl)oxy)-2-azaspiro[3.5]nonan-2-yl)((1s,3s)-3-hydroxy-3-methylcyclobutyl)methanone] |
| 11 | Cc1cc(OC2CCC3(CC2)CN(C(=O)[C@H]2C[C@@](C)(O)C2)C3)nc2c1ccn2C [Example 470, (7-((1,4-Dimethyl-1H-pyrrolo[2,3-b]pyridin-6-yl)oxy)-2-azaspiro[3.5]nonan-2-yl)((1s,3s)-3-hydroxy-3-methylcyclobutyl)methanone] |
